Measured values: US20220372013A2, “PIPERIDINE-2,6-DIONE DERIVATIVES AND CROHN'S DISEASE TREATING” (Tianjin Hemay Pharmaceutical Sci-Tech Co., Ltd, priority 2016, published 2022)
Like-named read-outs stand apart in the source and are kept apart here. Marks after values point to notes of the source that are not given here.

Assays:
[1] = tested on: DNBS-Induced Inflammatory Bowel Disease Models in Rats; assay: Biological Example 4: DNBS-induced inflammatory bowel disease models in rats; type: in vivo, Wistar rats; details: 30 mg/Kg i.g. qd × 7; for Adhesion Degree of Colon / Colon weight to length ratio / Ulcer area of colon / inhibition in vivo at 30 mg/kg: day 7; for Body weight: Mean ± SD; for inhibition in vivo at 30 mg/kg: Rattus norvegicus, po, 168 h
Protocol: 102 male Wistar rats were fasted for 72 hours. A 5% glucose injection was administered subcutaneously twice during fasting. 88 rats with normal conditions and moderate body weight were selected from the fasting rats. The animals were randomly divided into 11 groups according to the body weight (see Table 11. Grouped Table).
The animals were anesthetized with ether after 72 hours fasting. A specially made gavage device was slowly inserted into the enteric cavity at 8 cm from the anus. The model control group and each test group were administered with 0.5 mL of 50 mg/mL DNBS in 30% ethanol solution. The normal control group was administered with 0.5 mL of 30% ethanol solution. The animals were inverted in anesthesia for 15 minutes. The day when the model was prepared was day 0 of the experiment. After 4 hours of DNBS induction, the corresponding drug or the corresponding volume of 1% CMC-Na was administered once per day. On day 7 of the experiment, the animals were euthanized to score the colon adhesion degree, measure the length of colon and ulcer area, weigh colon and calculate the colon weight to length ratio.
One-way ANOVA analysis of the length of colon and colon weight per length of rats was performed by SPSS22. Statistical analyses between groups were performed. The adhesion degree was scored. Mann-Whitney U non-parametric test was performed on ulcer area. Statistical analyses between groups were performed.
Calculation Formula of Inhibitory rate of weight increase per length: (Colon weight to length ratio in model group−Colon weight to length ratio in administration group)/(Colon weight to length ratio in model group−Colon weight to length ratio in blank group)

mice = assay: Biological Example 5: acute toxicity experiment of single oral administration in mice; type: in vivo; details: single oral 1000 mg/Kg, Mean ± SD
Protocol: The mice were fasted one day before the experiment. On the day of the experiment, 6 mice (ICR mice, body weight of 19-21 g, three females and three males) were selected in each experiment group. First of all, one female and one male were selected to orally give 1000 mg/Kg, and observed for 5-10 minutes. If there were no obvious side effects, the remaining 4 animals were orally given the same dose, and observed for 10-15 minutes. If no animal died, the animals were placed in a box to balancedly feed for 7 days. The state was observed and the body weight was recorded daily.
Observation Indexes within 0-15 Minutes after Administration
Activity: restlessness, hyperactivity
Nervous system response: tremor, spasm, convulsion, ataxia, posture abnormality, etc.
Autonomic nerve: exophthalmos, salivation, tears, urination (hematuria), diarrhea, piloerection, breathing, etc.
State of Animal: lethargy, hyperactivity, excitement, hair loss, diarrhea, abnormal behavior, death, etc.

[2] = read-out: Inhibitory rate of colon adhesion
[3] = read-out: Inhibitory rate of ulcer area of colon
[4] = read-out: Inhibitory rate of weight increase per length

Compound	Adhesion Degree of Colon [1]	Colon weight to length ratio [1]	Ulcer area of colon [1]	Body weight ([1]; Day 1)	Body weight ([1]; Day 2)	Body weight ([1]; Day 3)	Body weight ([1]; Day 4)	Body weight ([1]; Day 5)	Body weight ([1]; Day 6)	Body weight ([1]; Day 7)	inhibition in vivo at 30 mg/kg [1, 2]	inhibition in vivo at 30 mg/kg [1, 3]	inhibition in vivo at 30 mg/kg [1, 4]	Daily Body Weight (mice; Female mice, Day 1)	Daily Body Weight (mice; Female mice, Day 2)	Daily Body Weight (mice; Female mice, Day 3)	Daily Body Weight (mice; Female mice, Day 4)	Daily Body Weight (mice; Female mice, Day 5)	Daily Body Weight (mice; Female mice, Day 6)	Daily Body Weight (mice; Female mice, Day 7)	further results
COCCN1C(=O)CCC(N2C(=O)c3c(N)ccc(O)c3C2=O)C1=O (stereo not drawn) [Example 10, 4-amino-7-hydroxy-2-(1-(2-methoxyethyl)-2,6-dioxopiperidin-3-yl)isoindolin-1,3-dione]	0.5 ± 0.5 point	93 ± 12 mg/cm	0.2 ± 0.5# cm^2	122.4 ± 6.7 g	122.1 ± 8.0 g	126.6 ± 9.8 g	136.9 ± 12.5 g	143.7 ± 18.2 g	144.9 ± 19.7 g	160.8 ± 25.7 g	81.1%	91.7%	81.2%	19.2 ± 0.5 g	21.9 ± 0.4 g	22.4 ± 0.2 g	22.4 ± 0.2 g	22.9 ± 0.6 g	24.1 ± 1.5 g	24.2 ± 1.8 g	Daily Body Weight (mice; Male mice, Day 1): 19.4 ± 0.3 g; Daily Body Weight (mice; Male mice, Day 2): 24.4 ± 0.6 g; Daily Body Weight (mice; Male mice, Day 3): 25.5 ± 0.9 g; Daily Body Weight (mice; Male mice, Day 4): 25.5 ± 0.9 g; Daily Body Weight (mice; Male mice, Day 5): 26.8 ± 0.9 g; Daily Body Weight (mice; Male mice, Day 6): 29.2 ± 0.7 g; Daily Body Weight (mice; Male mice, Day 7): 30.3 ± 0.7 g
C[S+]([O-])CCN1C(=O)CCC(N2C(=O)c3cccc(N)c3C2=O)C1=O (stereo not drawn) [Example 12, 4-amino-2-(1-(2-methylsulfinylethyl)-2,6-dioxopiperidin-3-yl)isoindolin-1,3-dione]	0.8 ± 0.7 point	92 ± 16 mg/cm	0.4 ± 0.9 cm^2	129.1 ± 5.1 g	128.7 ± 6.6 g	133.9 ± 9.8 g	141.8 ± 12.0 g	149.2 ± 11.0 g	149.5 ± 11.2 g	167.3 ± 11.3 g	62.2%	83.3%	82.4%	18.7 ± 0.7 g	21.8 ± 0.6 g	22.6 ± 0.1 g	22.6 ± 0.0 g	23.7 ± 0.6 g	25.3 ± 1.0 g	25.7 ± 1.6 g	Daily Body Weight (mice; Male mice, Day 1): 18.5 ± 0.2 g; Daily Body Weight (mice; Male mice, Day 2): 24.3 ± 0.6 g; Daily Body Weight (mice; Male mice, Day 3): 24.9 ± 0.1 g; Daily Body Weight (mice; Male mice, Day 4): 24.9 ± 0.1 g; Daily Body Weight (mice; Male mice, Day 5): 26.1 ± 0.7 g; Daily Body Weight (mice; Male mice, Day 6): 27.8 ± 0.7 g; Daily Body Weight (mice; Male mice, Day 7): 28.5 ± 0.7 g
COCCN1C(=O)CCC(N2C(=O)c3cccc(O)c3C2=O)C1=O (stereo not drawn) [Example 23, 4-hydroxy-2-(1-(2-methoxyethyl)-2,6-dioxopiperidin-3-yl)isoindolin-1,3-dione]	0.8 ± 0.7 point	105 ± 12 mg/cm	0.2 ± 0.3# cm^2	126.6 ± 8.5 g	123.2 ± 9.0 g	123.9 ± 7.6 g	136.5 ± 11.8 g	148.1 ± 14.5 g	152.1 ± 15.9 g	166.8 ± 12.8 g	62.2%	91.7%	67.1%	19.1 ± 0.6 g	22.4 ± 0.4 g	23.0 ± 0.1 g	23.0 ± 0.1 g	24.6 ± 0.4 g	24.8 ± 0.7 g	24.6 ± 0.4 g	Daily Body Weight (mice; Male mice, Day 1): 19.4 ± 0.8 g; Daily Body Weight (mice; Male mice, Day 2): 24.6 ± 1.2 g; Daily Body Weight (mice; Male mice, Day 3): 24.5 ± 0.6 g; Daily Body Weight (mice; Male mice, Day 4): 24.5 ± 0.6 g; Daily Body Weight (mice; Male mice, Day 5): 25.4 ± 1.2 g; Daily Body Weight (mice; Male mice, Day 6): 28.1 ± 0.8 g; Daily Body Weight (mice; Male mice, Day 7): 29.0 ± 0.8 g
